Patent EP3358006A1, “METHOD AND MEDIUM FOR CULTIVATING PRIMARY CELLS IN VITRO” (Mares Ltd., priority 2017, dated 2018)
Where two headings read alike, the source gives them in different places.

Columns and labels:
Format in all cases: cell-based, human
[1] = system: hMSCs; assay: Substrate oxidation in 24-well plates (14CO2 production from 14C-labelled substrates); settings: for increase in substrate-oxidation rate between passage 2 and passage 5: normoxic-cultured cells (20% O2); for oxidation rate relative to glucose (fold higher): normoxic-cultured cells, 10mM acetoacetate vs 5.5mM glucose
Description: (§1) Cryopreserved cells were thawed, washed with growth medium and seeded at a density of 1 X 10^6 cells per 225cm2 with Dulbecco's Modified Eagle's medium (DMEM) containing 2mM ultra-glutamine, 1g/l glucose, 50µg/ml gentamycin and 10% FBS. Where 3-hydroxybutyrate (3-HB) was included in the growth medium, the concentration was 5mM throughout. Cells were passaged at about 80% confluence. Cells for measurements of glycolysis or oxidation were seeded into 24-well plates at a density of 1 x 10^4 cells per well and used at about 90% confluence. Cells were maintained in either normoxic culture with 20% O2 tension or hypoxic culture with 5% O2 tension in an oxygen-tension controlled incubator. Previous workers have identified 5% O2 as being a physiologically significant level of O2 with respect to in vivo conditions for hMSCs, representing hypoxia (Pattappa et al., 2011).
Cells were incubated for 90 minutes in the presence of a single radiolabelled substrate (with addition of unlabelled substrates where indicated) in DMEM (containing no pyruvate, glucose or glutamine) in a total volume of 0.5 mls. The concentrations of single substrates were: 5.5mM glucose (considered similar to median human blood glucose concentration); 2mM pyruvate (considered higher than endogenous pyruvate concentration from glucose metabolism and sufficient to stimulate activity of pyruvate dehydrogenase plus pyruvate carboxylase); 1mM glutamine (considered similar to human blood glutamine concentrations); 10mM acetoacetate (considered similar to intracellular acetoacetate concentrations produced from maximal blood ketone body concentrations). In addition, substrates incorporated radiolabels as follows: glucose: ^21 MBq/mmol D-U-^14C-glucose; pyruvate: 0.35MBq/mmol 1-^14C-pyruvate; acetoacetate: 0.185MBq/mmol 3-^14C-acetoacetate; glutamine: 1.2 MBq/mmol U-^14C-glutamine. Evolved ^14CO2 was trapped and measured by the method of Collins et al. (1998), except that, after addition of perchloric acid to the wells, plates were gently agitated for 60 minutes to release dissolved ^14CO2. Filter papers containing trapped ^14CO2 were counted in Ecoscint using a Tri-Carb 2800TR Liquid Scintillation Analyser. […] Rates of ATP-production from individual substrates were calculated on the basis of mol/mol production as follows: glucose: 31; glutamine: 20; pyruvate: 12.5; acetoacetate: 20. For calculations of ATP-production from acetoacetate plus pyruvate, separate incubations were performed with ^14C-acetoacetate in the presence of unlabelled pyruvate and with ^14C-pyruvate in the presence of unlabelled acetoacetate. Rates of ATP-production from the labelled substrate were calculated for each condition and the results summed.

[2] = system: hMSCs; assay: Glycolytic rate in 24-well plates (3H2O production from 5-3H-glucose); settings: p5 vs p2
Description: as §1
Glycolysis was measured as the production of ^3H2O from 5-^3H-glucose, which occurs during the step catalysed by enolase. Cells were incubated with 5.5mM glucose containing 17 MBq/mmol 5-^3H-glucose in DMEM without pyruvate, glutamine or glucose for 90 minutes in a total volume of 0.5mls. […] Washing with 2 column volumes of water eluted the ^3H2O which was counted for radioactivity (Tri-Carb 2800TR Liquid Scintillation Analyser).

[3] = system: hMSCs; assay: Adipocyte differentiation, fat accumulation by oil red O staining; settings: for Absorbance of eluate at 500nm, Adipocyte-differentiated cells: 18 days; for Absorbance of eluate at 500nm, Control cells: no differentiation protocol
Description: (§2) Cells at passage 6 were seeded at a density of 2x10^5 (adipogenesis and chondrogenesis) or 3x10^4 (osteogenesis) into wells of a 6 well tissue culture plate. Kits for differentiation along adipogenic, chondrocytic and osteocytic lineages were obtained from Lonza and accompanying protocols followed. Early stage characteristics of differentiation were then assessed. Adipocytes were assayed for fat accumulation after 18 days from the onset of the differentiation protocol. Cells were fixed by incubating for 10 minutes in 10% formalin, followed by 60 minutes in fresh 10% formalin and washing with 60% isopropanol. 5mM Oil red O in 60% isopropanol (filtered), 1ml per well, was added to dry wells and left for 10 minutes before washing four times with water. Oil red O was eluted with 1ml 100% isopropanol per well and the optical density measured at 500nm. Chondrocytes were assayed for collagen accumulation (after 21 days from the onset of the differentiation protocol) using Sirius red/fast green collagen staining kit purchased from Amsbio. Osteocytes were assayed for calcium accumulation (21 days after the onset of the differentiation protocol) by the method of Jager et al, 2005. In each case, values were compared with those of control cells which had been cultured under normal growth conditions without being exposed to differentiation protocols.
Cells were inoculated at a density of 2x10^5 cells/well into 6 well plates and the adipocyte differentiation protocol followed (refer to Experimental Procedures for full protocol). After 18 days, medium was removed from wells and cells stained with oil red O. The dye was eluted from the cells and the absorbance of the eluate read at 500 nm. B: Absorbance at 577nm for cells treated with cresopthalein to measure Ca2+ accumulation.

[4] = system: hMSCs; assay: Osteocyte differentiation, Ca2+ accumulation by cresopthalein; settings: for Absorbance at 577nm, Osteocyte-differentiated cells: 21 days; for Absorbance at 577nm, Control cells: no differentiation protocol
Description: as §2
Cells were inoculated at a density of 3x10^4 cells/well into 6 well plates and the osteocyte differentiation protocol followed (refer to Experimental Procedures for full protocol). After 21 days, cells were incubated with 0.6M HCl for 24 hours before calcium per well was measured by complexing with cresopthalein and measuring absorbance at 577nm. C: Absorbance at 540nm for cells treated with Sirius red/fast green dye to measure collagen accumulation.

[5] = system: hMSCs; assay: Chondrocyte differentiation, collagen accumulation by Sirius red/fast green staining; settings: for activation at 5000 µM: Homo sapiens, Chondrocyte, 504 h, read-out: % increase over controls (chondrocyte differentiation); for Absorbance at 540nm, Chondrocyte-differentiated cells: 21 days; for Absorbance at 540nm, Control cells: no differentiation protocol
Description: as §2
Cells were inoculated at a density of 2x10^5 cells/well into 6 well plates and the chondrocyte-differentiation protocol followed (refer to Experimental Procedures for full protocol). After 21 days, cells were fixed with Kahle fixative and stained with Sirius dye. Dye was extracted and the absorbance read at 540nm. n=3 ** p<0.004; *** p<0.0001

[6] = system: hMSCs; assay: cells; settings: for ROS generated per mole of substrate oxidised: 90 minutes incubation with 5.5mM glucose or 10mM acetoacetate, normoxic-cultured cells, passage 5; for fold induction at 20 µM: Homo sapiens, 24 h, 24h pre-incubation with 20µM genipin, passage 5, normoxic
Description: Cells were incubated under appropriate conditions in 24-well plates in a total volume of 0.2ml for 90 minutes. At 90 minutes, ROS were assayed using an Oxiselect Amplex Red kit from Cell Biolabs, Inc., according to the manufacturer's instructions. Where genipin was used, cells were pre-incubated for 24 hours with 20 µM genipin.

[7] = system: hMSCs; assay: Calculated rates of ATP-production from substrate oxidation and glycolysis; settings: full oxidation assumed; passage 2, normoxic-cultured cells
Description: Cells were incubated for 90 minutes in the presence of a single radiolabelled substrate (with addition of unlabelled substrates where indicated) in DMEM (containing no pyruvate, glucose or glutamine) in a total volume of 0.5 mls. […] Evolved ^14CO2 was trapped and measured by the method of Collins et al. (1998), except that, after addition of perchloric acid to the wells, plates were gently agitated for 60 minutes to release dissolved ^14CO2. Filter papers containing trapped ^14CO2 were counted in Ecoscint using a Tri-Carb 2800TR Liquid Scintillation Analyser. […] Rates of ATP-production from individual substrates were calculated on the basis of mol/mol production as follows: glucose: 31; glutamine: 20; pyruvate: 12.5; acetoacetate: 20. […] Rates of ATP-production from the labelled substrate were calculated for each condition and the results summed.
ATP-yields were calculated from the following values, as follows: from glycolysis of glucose, it is assumed that 2 moles ATP will be produced per mole glucose glycolysed. […]

[8] = normoxic cells cultured with 5mM 3-HB from passages 1 to 5

SMILES: CC(O)CC(=O)O (stereo not drawn) [3-HB, 3-hydroxybutyrate]
- increase in glucose oxidation rate at passage 5 [1, 8]: 7.5 fold
- reduction of acetoacetate oxidation rate at passage 5 [1, 8]: 1.3 fold
- decrease in glycolytic rates by passage 5 ([2]; cells cultured under hypoxia with 5mM 3-HB): 1.5 fold
- increase in glycolytic rate at p5 ([2]; normoxic cells cultured with 5mM 3-HB): 1.4 fold
- % increase over control (adipocyte differentiation) ([3]; Hypoxia + 5mM 3-HB): 27%
- Absorbance of eluate at 500nm, Adipocyte-differentiated cells ([3]; Hypoxia + 5mM 3-HB): *** 0.727 ± 0.001
- Absorbance of eluate at 500nm, Control cells ([3]; Hypoxia + 5mM 3-HB): 0.570 ± 0.001
- % increase over control (adipocyte differentiation) ([3]; Normoxia + 5mM 3-HB): 34%
- Absorbance of eluate at 500nm, Adipocyte-differentiated cells ([3]; Normoxia + 5mM 3-HB): *** 0.698 ±0.005
- Absorbance of eluate at 500nm, Control cells ([3]; Normoxia + 5mM 3-HB): 0.520 ± 0.006
- % increase over control (osteocyte differentiation) ([4]; Hypoxia + 5mM 3-HB): 36%
- Absorbance at 577nm, Osteocyte-differentiated cells ([4]; Hypoxia + 5mM 3-HB): *** 0.495 ± 0.007
- Absorbance at 577nm, Control cells ([4]; Hypoxia + 5mM 3-HB): 0.363 ± 0.003
- % increase over control (osteocyte differentiation) ([4]; Normoxia + 5mM 3-HB): 21%
- Absorbance at 577nm, Osteocyte-differentiated cells ([4]; Normoxia + 5mM 3-HB): *** 0.375 ± 0.003
- Absorbance at 577nm, Control cells ([4]; Normoxia + 5mM 3-HB): 0.310 ± 0.001
- activation at 5000 µM ([5]; Hypoxia + 5mM 3-HB): 45%
- activation at 5000 µM ([5]; Normoxia + 5mM 3-HB): 178%
- Absorbance at 540nm, Chondrocyte-differentiated cells ([5]; Hypoxia + 5mM 3-HB): ** 0.806 ± 0.024
- Absorbance at 540nm, Control cells ([5]; Hypoxia + 5mM 3-HB): 0.556 ± 0.008
- Absorbance at 540nm, Chondrocyte-differentiated cells ([5]; Normoxia + 5mM 3-HB): *** 0.887 ± 0.020
- Absorbance at 540nm, Control cells ([5]; Normoxia + 5mM 3-HB): 0.319 ± 0.004

SMILES: CC(=O)CC(=O)O [acetoacetate]
- increase in substrate-oxidation rate between passage 2 and passage 5 [1]: 3.5 fold
- oxidation rate relative to glucose (fold higher) ([1]; passage 2): 25 fold
- oxidation rate relative to glucose (fold higher) ([1]; passage 5): 42 fold
- ROS generated per mole of substrate oxidised [6]: 0.0017 moles of ROS
- difference in ROS generation per mole substrate oxidised, compared with glucose ([6]; acetoacetate lower than glucose): 4.5 fold

SMILES: COC(=O)C1=CO[C@@H](O)[C@@H]2C(CO)=CC[C@H]12 [genipin]
- fold induction at 20 µM ([6]; read-out: increase in ROS-production, acetoacetate substrate (10mM)): 2
- fold induction at 20 µM ([6]; read-out: increase in ROS-production, glucose substrate (5.5mM)): 1.6

SMILES: OC[C@H]1OC(O)[C@H](O)[C@@H](O)[C@@H]1O (stereo partly drawn) [glucose, reference compound]
- reduction of rate of acetoacetate-oxidation by added substrate ([1]; 10mM acetoacetate plus unlabelled 5.5mM glucose, passage 2, normoxic-cultured cells): more than 3 fold
- increase in substrate-oxidation rate between passage 2 and passage 5 [1]: 2 fold
- ATP produced compared with acetoacetate alone (times less) [7]: 16 times less
- ROS generated per mole of substrate oxidised [6]: 0.076 moles of ROS

SMILES: NC(=O)CC[C@H](N)C(=O)O [glutamine, reference compound]
- increase in substrate-oxidation rate between passage 2 and passage 5 [1]: not significantly different
- ATP produced compared with acetoacetate alone (times less) [7]: 33 times less

SMILES: O=C(O)CC(O)C(=O)O (stereo not drawn) [malate, reference compound]
- effect of added substrate on rates of pyruvate oxidation ([1]; data not shown): no significant effect
